Test results taken from patent US11919902B2, “Aryl-bipyridine amine derivatives as phosphatidylinositol phosphate kinase inhibitors” (HiberCell, Inc., priority 2017, dated 2024).

Tests used:
[1] = target: T1, PIP4K2A (full length protein, SignalChem) (Homo sapiens, UniProt P48426); assay: Kinase Assay PIP4K2 A (Sprint); ADP-Glo biochemical assay; details: Table 2; compounds listed under IC50 range headings
T1 construct: 4 nM PIP4K2A (full length protein, SignalChem); purchased SignalChem
T1 sequence (P48426 1-406): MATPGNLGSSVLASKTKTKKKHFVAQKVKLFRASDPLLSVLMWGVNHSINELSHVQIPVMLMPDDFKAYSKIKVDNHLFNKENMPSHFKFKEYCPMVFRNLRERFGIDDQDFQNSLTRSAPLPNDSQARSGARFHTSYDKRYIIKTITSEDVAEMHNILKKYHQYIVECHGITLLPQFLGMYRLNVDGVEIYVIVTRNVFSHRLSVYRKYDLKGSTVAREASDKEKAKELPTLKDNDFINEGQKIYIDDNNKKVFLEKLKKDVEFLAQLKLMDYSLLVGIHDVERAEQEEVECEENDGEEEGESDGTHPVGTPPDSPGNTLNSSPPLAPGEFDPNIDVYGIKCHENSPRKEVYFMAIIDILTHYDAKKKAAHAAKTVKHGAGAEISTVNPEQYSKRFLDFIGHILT
Outline: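 ADP-Glo luminescence detected ADP after a 1 h RT reaction started with 60 μM ATP solution. Before that, full-length PIP4K2A (4 nM in mix) with 100 μM PI(5)P diC8 was pre-incubated 15 min with compounds in MOPS buffer pH 7.2, 25 mM MgCl2, 0.005% Tween 20. IC50 derived from % inhibition relative to DMSO over 10 three-fold concentrations.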

GST tagged PIP4KtypeIIA = target: T2, GST tagged PIP4KtypeIIA (Homo sapiens, UniProt P48426); assay: ADP-glo kinase assay PIP4K 2A (PIP4KtypeIIA inhibition assay); format: biochemical; details: Table 3; compounds listed under IC50 range headings; 10 uM ATP, 0.5 nM PIP4KIIA
T2 construct: made in house; host or cells: E. coli
T2 sequence (P48426 1-406): T1 sequence (P48426 1-406)
Outline: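 Read-out was ADP-Glo luminescence converted to μM ADP, with IC50 plotted as % of no-inhibitor activity against log concentration. Reactions contained 10 μM ATP, 80 μM PI5P with DOPE carrier, and 0.5 nM GST-tagged PIP4KIIA (E. coli-expressed) in pH 7.3 HEPES/MgCl2 buffer with 5% DMSO. Enzyme and compound (≤4.8 μM) were preincubated 1 h at 27 °C before the 1 h reaction.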

GST tagged PIP4KtypeIIB = target: T3, GST tagged PIP4KtypeIIB (Homo sapiens, UniProt P78356); assay: Trans-FI P kinase assay PIP4K2B (PIP4KtypeIIB inhibition assay); format: biochemical; details: Table 4; compounds listed under IC50 range headings; 100 uM GTP, 5 nM PIP4KIIB; read-out: Trans-FI P kinase assays: PIP4K2B IC50
T3 construct: made in house; host or cells: E. coli
T3 sequence (P78356 1-416): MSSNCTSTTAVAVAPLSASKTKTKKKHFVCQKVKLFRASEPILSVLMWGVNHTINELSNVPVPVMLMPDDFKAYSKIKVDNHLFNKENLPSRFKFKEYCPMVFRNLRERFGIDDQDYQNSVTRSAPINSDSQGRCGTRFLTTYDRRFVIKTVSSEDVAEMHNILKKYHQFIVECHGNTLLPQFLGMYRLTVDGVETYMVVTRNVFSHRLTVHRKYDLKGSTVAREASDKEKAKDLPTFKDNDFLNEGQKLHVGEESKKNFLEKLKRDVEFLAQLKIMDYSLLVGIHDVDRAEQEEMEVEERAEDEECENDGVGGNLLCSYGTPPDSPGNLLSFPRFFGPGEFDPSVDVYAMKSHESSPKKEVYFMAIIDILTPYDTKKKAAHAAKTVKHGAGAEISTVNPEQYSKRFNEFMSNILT
Outline: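 Transcreener FI fluorescence, converted to GDP by calibration, tracked product from 5 nM E. coli-expressed GST-PIP4KIIB acting on 80 uM PI5P (DOPE carrier) with 100 uM GTP. Compound (top 4.8 uM final, 5% DMSO) was preincubated 1 h at 27 C before the 2 h reaction; IC50 fitted from residual activity.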

SMILES	IC50 [1]	IC50 (GST tagged PIP4KtypeIIA)	IC50 (GST tagged PIP4KtypeIIB)
COCCNC(=O)c1cc2c(-c3cnc(N)c(-c4ccc(N5CCCC5=O)cc4)c3)ccnc2o1 [Example 90, 4-(6-amino-5-(4-(2-oxopyrrolidin-1-yl)phenyl)pyridin-3-yl)-N-(2-methoxyethyl)furo[2,3-b]pyridine-2-carboxamide]	0.005 to 0.1 µM	0.01 to 0.1 µM	0.001 to 0.01 µM
N#Cc1[nH]c2ncccc2c1-c1cncc(-c2ccc(N3CCCC3=O)cc2)c1 [Example 51, 3-(5-(4-(2-oxopyrrolidin-1-yl)phenyl)pyridin-3-yl)-1H-pyrrolo[2,3-b]pyridine-2-carbonitrile]	0.005 to 0.1 µM	0.1 to 1 µM	0.01 to 0.1 µM
CN(C)C(=O)c1ccc(-c2cc(-c3ccnc4[nH]c(C(=O)N5CC(O)C5)cc34)cnc2N)nc1 [Example 129, 2′-amino-5′-(2-(3-hydroxyazetidine-1-carbonyl)-1H-pyrrolo[2,3-b]pyridin-4-yl)-N,N-dimethyl-[2,3′-bipyridine]-5-carboxamide]	0.1 to 1 µM	0.1 to 1 µM	0.1 to 1 µM
Nc1ncc(-c2ccnc3oc(C(=O)NCC4CC4)cc23)cc1-c1ccc(N2CCCC2=O)cc1 [Example 89, 4-(6-amino-5-(4-(2-oxopyrrolidin-1-yl)phenyl)pyridin-3-yl)-N-(cyclopropylmethyl)furo[2,3-b]pyridine-2-carboxamide]	0.001 to 0.005 µM	0.001 to 0.01 µM	0.001 to 0.01 µM
CN(C)C(=O)c1ccc(-c2cc(-c3ccnc(CNC(=O)c4ccc(NC(=O)OC(C)(C)C)cc4)c3)cnc2N)nc1 [Example 187, tert-butyl(4-(((2′-amino-5-(dimethylcarbamoyl)-[2,3′:5′,4″-terpyridin]-2″-yl)methyl)carbamoyl)phenyl)carbamate]	2.5 to 5 µM	> 5 µM	> 5 µM
COCc1c(-c2ccncc2)cncc1-c1ccc(N2CCCC2=O)cc1 [Example 83, 1-(4-(4-(methoxymethyl)-[3,4′-bipyridin]-5-yl)phenyl)pyrrolidin-2-one]	1 to 2.5 µM	> 5 µM	
COC(=O)c1c[nH]c2nccc(-c3cnc(N)c(-c4ccc(C(=O)N(C)C)cn4)c3)c12 [Example 114, methyl 4-(2′-amino-5-(dimethylcarbamoyl)-[2,3′-bipyridin]-5′-yl)-1H-pyrrolo[2,3-b]pyridine-3-carboxylate]	< 5 µM	> 5 µM	
C[C@H](O)c1cnc2c(c1)c(-c1cncc(-c3ccc(N4CCCC4=O)cc3)c1)cn2C [Example 294, (S)-1-(4-(5-(5-(1-hydroxyethyl)-1-methyl-1H-pyrrolo[2,3-b]pyridin-3-yl)pyridin-3-yl)phenyl)pyrrolidin-2-one]		0.1 to 1 µM	0.1 to 1 µM
CN(C)C(=O)c1ccc(-c2cc(-c3ccnc4[nH]c(C(=O)N[C@H]5COC[C@H]5N)cc34)cnc2N)nc1 [Example 226, 4-(2′-amino-5-(dimethylcarbamoyl)-[2,3′-bipyridin]-5′-yl)-N-((3R,4S)-4-aminotetrahydrofuran-3-yl)-1H-pyrrolo[2,3-b]pyridine-2-carboxamide]		1 to 2.5 µM	0.01 to 0.1 µM
CN(C)C(=O)c1ccc(-c2cc(-c3cc(Nc4cc(N)ccn4)ncn3)cnc2N)nc1 [Example 222, 2′-amino-5′-(6-((4-aminopyridin-2-yl)amino)pyrimidin-4-yl)-N,N-dimethyl-[2,3′-bipyridine]-5-carboxamide]		> 5 µM	2.5 to 5 µM
O=C1CCCN1c1ccc(-c2cncc(-c3c4n(c5ncncc35)CCC4)c2)cc1 [Example 352, 1-(4-(5-(7,8-dihydro-6H-pyrimido[5,4-b]pyrrolizin-5-yl)pyridin-3-yl)phenyl)pyrrolidin-2-one]		0.01 to 0.1 µM	0.01 to 0.1 µM
Cc1c(-c2ccc(N3CCCC3=O)cc2)cncc1-c1cn(C)c2ncc([C@@H](C)O)cc12 (single isomer, unassigned) [196(R)]		0.1 to 1 µM	0.1 to 1 µM
CC(O)c1cnc2c(c1)c(-c1cncc(-c3ccc(N4CCCC4=O)cc3)c1)c1n2CCC1 (stereo not shown) [Example 351, 1-(4-(5-(3-(1-hydroxyethyl)-7,8-dihydro-6H-pyrido[3,2-b]pyrrolizin-5-yl)pyridin-3-yl)phenyl)pyrrolidin-2-one]		0.01 to 0.1 µM	0.01 to 0.1 µM
O=C(NCCc1cccnc1)c1cc2c(-c3cncc(-c4ccc(N5CCCC5=O)cc4)c3)ccnc2[nH]1 [Example 237, 4-(5-(4-(2-oxopyrrolidin-1-yl)phenyl)pyridin-3-yl)-N-(2-(pyridin-3-yl)ethyl)-1H-pyrrolo[2,3-b]pyridine-2-carboxamide]		0.1 to 1 µM	0.01 to 0.1 µM
O=C(Nc1nccc(-c2cncc(-c3ccc(N4CCCC4=O)cc3)c2)n1)C1CCC1 [Example 287, N-(4-(5-(4-(2-oxopyrrolidin-1-yl)phenyl)pyridin-3-yl)pyrimidin-2-yl)cyclobutanecarboxamide]		0.1 to 1 µM	0.1 to 1 µM

Other lines, results leading:

IC50 [1]	IC50 (GST tagged PIP4KtypeIIA)	IC50 (GST tagged PIP4KtypeIIB)	SMILES
0.1 to 1 µM	1 to 2.5 µM	0.1 to 1 µM	CN(C)C(=O)c1ccc(-c2cc(-c3ccnc4[nH]c(C(=O)N5CCOCC5)cc34)cnc2N)nc1 [Example 128, 2′-amino-N,N-dimethyl-5′-(2-(morpholine-4-carbonyl)-1H-pyrrolo[2,3-b]pyridin-4-yl)-[2,3′-bipyridine]-5-carboxamide]
0.005 to 0.1 µM	0.1 to 1 µM	0.01 to 0.1 µM	CNC(=O)c1cnc2[nH]cc(-c3cncc(-c4ccc(N5CCCC5=O)cc4)c3)c2c1 [Example 71, N-methyl-3-(5-(4-(2-oxopyrrolidin-1-yl)phenyl)pyridin-3-yl)-1H-pyrrolo[2,3-b]pyridine-5-carboxamide]
< 5 µM	0.01 to 0.1 µM		Cn1cc(-c2cncc(-c3ccc(N4CCCC4=O)cc3)c2)c2cncnc21 [Example 153, 1-(4-(5-(7-methyl-7H-pyrrolo[2,3-d]pyrimidin-5-yl)pyridin-3-yl)phenyl)pyrrolidin-2-one]
< 5 µM	1 to 2.5 µM		Cc1cc(N2CCCC2=O)ccc1-c1cncc(-c2ccncc2)c1 [Example 81, 1-(4-([3,4′-bipyridin]-5-yl)-3-methylphenyl)pyrrolidin-2-one]
	0.1 to 1 µM	0.01 to 0.1 µM	CNC(=O)c1cc2c(-c3cncc(-c4ccc(N5CCCC5=O)cc4)c3)ccnc2[nH]1 [Example 240, N-methyl-4-(5-(4-(2-oxopyrrolidin-1-yl)phenyl)pyridin-3-yl)-1H-pyrrolo[2,3-b]pyridine-2-carboxamide]
	0.1 to 1 µM	0.01 to 0.1 µM	O=C(NCCc1ncc[nH]1)c1cc2c(-c3cncc(-c4ccc(N5CCCC5)cc4)c3)ccnc2[nH]1 [Example 244, N-(2-(1H-imidazol-2-yl)ethyl)-4-(5-(4-(pyrrolidin-1-yl)phenyl)pyridin-3-yl)-1H-pyrrolo[2,3-b]pyridine-2-carboxamide]
	0.1 to 1 µM	0.01 to 0.1 µM	O=C(NCCc1nn[nH]n1)c1cc2c(-c3cncc(-c4ccc(N5CCCC5=O)cc4)c3)ccnc2[nH]1 [Example 251, N-(2-(2H-tetrazol-5-yl)ethyl)-4-(5-(4-(2-oxopyrrolidin-1-yl)phenyl)pyridin-3-yl)-1H-pyrrolo[2,3-b]pyridine-2-carboxamide]
	> 5 µM	> 5 µM	CN(C(=O)c1ccc(-c2cncc(-c3ccnc4[nH]ncc34)c2)cc1)c1cccc(-n2ccnn2)c1 [Example 206, N-(3-(1H-1,2,3-triazol-1-yl)phenyl)-4-(5-(1H-pyrazolo[3,4-b]pyridin-4-yl)pyridin-3-yl)-N-methylbenzamide]
	0.01 to 0.1 µM	0.01 to 0.1 µM	CC(O)c1cnc2[nH]c(C3CC3)c(-c3cncc(-c4ccc(N5CCCC5=O)cc4)c3)c2c1 (stereo not shown) [Example 291, 1-(4-(5-(2-cyclopropyl-5-(1-hydroxyethyl)-1H-pyrrolo[2,3-b]pyridin-3-yl)pyridin-3-yl)phenyl)pyrrolidin-2-one]
